Measurements reported in US7576241B2, “Derivatives of amidines, their preparation, their use as medicaments and the pharmaceutical compositions containing them” (Ipsen Pharma S.A.S., priority 1998, dated 2009).

SMILES | melting point [°C]
NC(=Nc1ccc(CCNC(=O)/C=C/c2ccccc2O)cc1)c1cccs1 [Example 39, (E)-N-(4-{[amino(2-thienyl)methylidene]amino}phenethyl)-3-(2-hydroxyphenyl)-2-propenamide] | 145 to 155
COc1cc(/C=C/C(=O)NCCc2ccc(N=C(N)c3cccs3)cc2)cc(OC)c1O [Example 42, (E)-N-(4-{[amino(2-thienyl)methylidene]amino}phenethyl)-3-(4-hydroxy-3,5-dimethoxyphenyl)-2-propenamide] | 196.4 to 197.6
CC(=O)Nc1ccc(CNCCc2ccc(N=C(N)c3cccs3)cc2)cc1 [Example 58, N-(4-{[(4-{[amino(2-thienyl)methylidene]amino}phenethyl)-amino]methyl}phenyl)acetamide] | 237.8 to 239
NC(=Nc1ccc(CCNCc2ccc3cccc(O)c3n2)cc1)c1cccs1 [Example 59, N′-[4-(2-{[(8-hydroxy-2-quinolinyl)methyl]amino}ethyl)phenyl]-2-thiophenecarboximidamide] | > 230
I.NC(=Nc1ccc(CCNCC=Cc2ccccc2)cc1)c1cccs1 [Example 60, N′-[4-(2-{[3-phenyl-2-propenyl]amino}ethyl)phenyl]-2-thiophenecarboximidamide hydroiodide] | 151 to 153

More lines, now with the values ahead:

melting point [°C] | SMILES
174 to 176 | COc1cc(C=CCNCCc2ccc(N=C(N)c3cccs3)cc2)ccc1O.O=C(O)/C=C/C(=O)O.O=C(O)/C=C/C(=O)O [Example 61, N′-[4-(2-{[3-(4-hydroxy-3-methoxyphenyl)-2-propenyl]amino}ethyl)phenyl]-2-thiophenecarboximidamide difumarate]
182 to 184 | COc1cc(C=CCNCCc2ccc(N=C(N)c3cccs3)cc2)cc(OC)c1O.Cl.Cl [Example 62, N′-[4-(2-{[3-(4-hydroxy-3,5-dimethoxyphenyl)-2-propenyl]amino}ethyl)phenyl]-2-thiophenecarboximidamide dihydrochloride]
> 230 | COc1cc(O)c(CNCCc2ccc(N=C(N)c3cccs3)cc2)c(OC)c1 [Example 64, N′-(4-{2-[(2-hydroxy-4,6-dimethoxybenzyl)amino]ethyl}phenyl)-2-thiophenecarboximidamide]
